A short description of the data set: Stability against non-enzymatic hydrolysis in buffer. The class given is physicochemical. To be noted: 1/15 molar phosphate buffer (pH 8.20) at 37°C for 90 minutes.

Each structure is given as a SMILES string.

On to `C[N+](C)(C)CCOC(=O)c1ccc(O)c(O)c1.[I-]` [DHBCI, 3,4-dihydroxybenzoylcholine iodide], for which the non-enzymatic hydrolysis result was “substantially no hydrolysis”.

The record behind these values is patent EP0155825A2, “Novel choline derivatives” (NITTO BOSEKI CO., LTD., priority 1984, dated 1985).
